Laboratory results: patent US20250120967A1, “TYROSINE KINASES INHIBITORS AND USES THEREOF” (GREAT NOVEL THERAPEUTICS BIOTECH & MEDICALS CORPORATION, priority 2023, published 2025)

Columns and labels:
Test in all cases: Tyrosine kinase inhibition assay
Type in all cases: biochemical
Conditions in all cases: single concentration 1.0 μM, read-out: percent inhibition
[1] = biological target: MAPK8 (JNK1) (Homo sapiens, UniProt P45983)
Outline: (§1)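 Percent inhibition from a one-concentration (1.0 μM) Z′-LYTE biochemical screen at apparent-Km ATP; >80% scored as a hit.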

[2] = biological target: T1, TNK1 (Homo sapiens, UniProt Q13470)
T1 sequence (Q13470 1-666): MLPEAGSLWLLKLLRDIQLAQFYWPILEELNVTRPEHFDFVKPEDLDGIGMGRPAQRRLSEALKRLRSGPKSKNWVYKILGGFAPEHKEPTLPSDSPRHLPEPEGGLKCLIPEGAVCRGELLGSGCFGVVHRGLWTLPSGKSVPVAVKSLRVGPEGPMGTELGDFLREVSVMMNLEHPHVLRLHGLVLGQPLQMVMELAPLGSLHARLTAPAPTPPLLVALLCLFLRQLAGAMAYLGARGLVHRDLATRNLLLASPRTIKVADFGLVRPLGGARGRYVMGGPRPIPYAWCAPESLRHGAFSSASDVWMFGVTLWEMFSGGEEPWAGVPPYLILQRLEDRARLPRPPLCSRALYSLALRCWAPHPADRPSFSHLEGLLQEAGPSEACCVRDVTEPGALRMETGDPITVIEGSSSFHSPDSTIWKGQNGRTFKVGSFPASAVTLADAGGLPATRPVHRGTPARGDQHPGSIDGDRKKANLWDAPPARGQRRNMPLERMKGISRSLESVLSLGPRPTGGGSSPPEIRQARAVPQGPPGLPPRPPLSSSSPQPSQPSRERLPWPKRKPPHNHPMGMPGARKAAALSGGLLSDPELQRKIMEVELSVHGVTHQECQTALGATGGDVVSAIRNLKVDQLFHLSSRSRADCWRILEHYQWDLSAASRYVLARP
Outline: as §1

[3] = biological target: PIK3C2A (PI3K-C2 alpha) (Homo sapiens, UniProt O00443)
PIK3C2A (PI3K-C2 alpha), sequence (O00443 whole entry): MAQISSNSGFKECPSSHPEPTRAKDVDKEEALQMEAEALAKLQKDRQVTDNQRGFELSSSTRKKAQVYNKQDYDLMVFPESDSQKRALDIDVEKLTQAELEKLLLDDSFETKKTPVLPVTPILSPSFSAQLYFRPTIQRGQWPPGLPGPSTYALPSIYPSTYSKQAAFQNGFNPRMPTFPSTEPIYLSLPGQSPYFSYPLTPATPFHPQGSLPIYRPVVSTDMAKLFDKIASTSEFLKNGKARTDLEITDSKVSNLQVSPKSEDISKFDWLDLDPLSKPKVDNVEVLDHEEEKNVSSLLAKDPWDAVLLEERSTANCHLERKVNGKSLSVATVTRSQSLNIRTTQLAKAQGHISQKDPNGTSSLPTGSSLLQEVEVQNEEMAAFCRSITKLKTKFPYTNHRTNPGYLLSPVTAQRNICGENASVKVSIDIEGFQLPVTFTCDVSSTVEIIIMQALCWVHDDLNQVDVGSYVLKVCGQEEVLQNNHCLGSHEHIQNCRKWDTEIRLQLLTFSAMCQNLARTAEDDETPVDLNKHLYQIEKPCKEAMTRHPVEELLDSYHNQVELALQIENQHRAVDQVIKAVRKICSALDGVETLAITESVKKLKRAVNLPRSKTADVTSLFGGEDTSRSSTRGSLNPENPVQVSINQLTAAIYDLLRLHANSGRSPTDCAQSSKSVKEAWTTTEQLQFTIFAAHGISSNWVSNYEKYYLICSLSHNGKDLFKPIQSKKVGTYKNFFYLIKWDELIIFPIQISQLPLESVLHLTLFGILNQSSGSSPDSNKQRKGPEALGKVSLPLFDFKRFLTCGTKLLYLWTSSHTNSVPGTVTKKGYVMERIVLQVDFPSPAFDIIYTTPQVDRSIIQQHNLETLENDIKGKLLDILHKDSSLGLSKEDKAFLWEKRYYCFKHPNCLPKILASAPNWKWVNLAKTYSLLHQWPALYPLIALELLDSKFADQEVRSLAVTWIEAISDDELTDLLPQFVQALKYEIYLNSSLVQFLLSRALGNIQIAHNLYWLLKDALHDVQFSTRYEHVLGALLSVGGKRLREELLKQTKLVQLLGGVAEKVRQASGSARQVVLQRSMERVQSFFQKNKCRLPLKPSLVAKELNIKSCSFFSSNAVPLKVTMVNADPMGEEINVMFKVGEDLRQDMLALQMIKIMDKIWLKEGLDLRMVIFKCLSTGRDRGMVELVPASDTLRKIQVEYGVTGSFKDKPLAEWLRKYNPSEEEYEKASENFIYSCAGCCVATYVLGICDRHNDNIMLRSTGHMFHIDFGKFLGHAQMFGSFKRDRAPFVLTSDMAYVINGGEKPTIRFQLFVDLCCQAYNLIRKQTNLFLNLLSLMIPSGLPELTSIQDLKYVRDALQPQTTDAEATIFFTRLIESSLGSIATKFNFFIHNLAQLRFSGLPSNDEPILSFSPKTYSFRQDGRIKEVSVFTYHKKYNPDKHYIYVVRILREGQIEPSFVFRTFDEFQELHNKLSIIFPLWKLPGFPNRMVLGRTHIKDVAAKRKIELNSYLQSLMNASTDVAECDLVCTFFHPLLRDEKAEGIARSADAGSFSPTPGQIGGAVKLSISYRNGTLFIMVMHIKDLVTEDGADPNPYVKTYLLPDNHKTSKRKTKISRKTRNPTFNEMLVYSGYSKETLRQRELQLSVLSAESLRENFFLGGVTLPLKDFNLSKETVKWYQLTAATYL
Outline: as §1

[4] = biological target: T2, DDR2 (Homo sapiens, UniProt Q16832)
T2 sequence (Q16832 22-855): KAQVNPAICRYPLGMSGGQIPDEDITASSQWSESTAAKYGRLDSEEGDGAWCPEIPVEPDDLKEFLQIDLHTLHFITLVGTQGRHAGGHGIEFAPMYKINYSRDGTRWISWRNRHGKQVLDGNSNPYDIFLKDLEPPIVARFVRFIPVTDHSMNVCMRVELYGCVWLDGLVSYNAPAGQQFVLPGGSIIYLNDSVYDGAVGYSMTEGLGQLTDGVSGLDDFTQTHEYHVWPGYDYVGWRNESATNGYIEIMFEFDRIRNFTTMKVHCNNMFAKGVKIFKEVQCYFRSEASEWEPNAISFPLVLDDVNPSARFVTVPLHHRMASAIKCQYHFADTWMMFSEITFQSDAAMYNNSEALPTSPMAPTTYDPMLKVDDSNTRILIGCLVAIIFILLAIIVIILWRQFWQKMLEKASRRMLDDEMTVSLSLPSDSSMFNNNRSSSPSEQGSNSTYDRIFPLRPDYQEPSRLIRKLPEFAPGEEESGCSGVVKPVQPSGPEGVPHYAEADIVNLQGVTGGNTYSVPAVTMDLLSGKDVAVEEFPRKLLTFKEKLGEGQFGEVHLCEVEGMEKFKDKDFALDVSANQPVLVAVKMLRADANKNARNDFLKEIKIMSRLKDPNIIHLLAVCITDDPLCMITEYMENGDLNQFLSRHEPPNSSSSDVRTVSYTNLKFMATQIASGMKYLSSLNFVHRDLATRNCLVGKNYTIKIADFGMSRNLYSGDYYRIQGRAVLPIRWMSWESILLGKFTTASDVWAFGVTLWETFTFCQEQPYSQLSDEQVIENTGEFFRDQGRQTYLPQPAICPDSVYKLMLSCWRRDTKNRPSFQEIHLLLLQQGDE
Outline: as §1

[5] = biological target: PEAK1 (Homo sapiens, UniProt Q9H792)
PEAK1, sequence (Q9H792 whole entry): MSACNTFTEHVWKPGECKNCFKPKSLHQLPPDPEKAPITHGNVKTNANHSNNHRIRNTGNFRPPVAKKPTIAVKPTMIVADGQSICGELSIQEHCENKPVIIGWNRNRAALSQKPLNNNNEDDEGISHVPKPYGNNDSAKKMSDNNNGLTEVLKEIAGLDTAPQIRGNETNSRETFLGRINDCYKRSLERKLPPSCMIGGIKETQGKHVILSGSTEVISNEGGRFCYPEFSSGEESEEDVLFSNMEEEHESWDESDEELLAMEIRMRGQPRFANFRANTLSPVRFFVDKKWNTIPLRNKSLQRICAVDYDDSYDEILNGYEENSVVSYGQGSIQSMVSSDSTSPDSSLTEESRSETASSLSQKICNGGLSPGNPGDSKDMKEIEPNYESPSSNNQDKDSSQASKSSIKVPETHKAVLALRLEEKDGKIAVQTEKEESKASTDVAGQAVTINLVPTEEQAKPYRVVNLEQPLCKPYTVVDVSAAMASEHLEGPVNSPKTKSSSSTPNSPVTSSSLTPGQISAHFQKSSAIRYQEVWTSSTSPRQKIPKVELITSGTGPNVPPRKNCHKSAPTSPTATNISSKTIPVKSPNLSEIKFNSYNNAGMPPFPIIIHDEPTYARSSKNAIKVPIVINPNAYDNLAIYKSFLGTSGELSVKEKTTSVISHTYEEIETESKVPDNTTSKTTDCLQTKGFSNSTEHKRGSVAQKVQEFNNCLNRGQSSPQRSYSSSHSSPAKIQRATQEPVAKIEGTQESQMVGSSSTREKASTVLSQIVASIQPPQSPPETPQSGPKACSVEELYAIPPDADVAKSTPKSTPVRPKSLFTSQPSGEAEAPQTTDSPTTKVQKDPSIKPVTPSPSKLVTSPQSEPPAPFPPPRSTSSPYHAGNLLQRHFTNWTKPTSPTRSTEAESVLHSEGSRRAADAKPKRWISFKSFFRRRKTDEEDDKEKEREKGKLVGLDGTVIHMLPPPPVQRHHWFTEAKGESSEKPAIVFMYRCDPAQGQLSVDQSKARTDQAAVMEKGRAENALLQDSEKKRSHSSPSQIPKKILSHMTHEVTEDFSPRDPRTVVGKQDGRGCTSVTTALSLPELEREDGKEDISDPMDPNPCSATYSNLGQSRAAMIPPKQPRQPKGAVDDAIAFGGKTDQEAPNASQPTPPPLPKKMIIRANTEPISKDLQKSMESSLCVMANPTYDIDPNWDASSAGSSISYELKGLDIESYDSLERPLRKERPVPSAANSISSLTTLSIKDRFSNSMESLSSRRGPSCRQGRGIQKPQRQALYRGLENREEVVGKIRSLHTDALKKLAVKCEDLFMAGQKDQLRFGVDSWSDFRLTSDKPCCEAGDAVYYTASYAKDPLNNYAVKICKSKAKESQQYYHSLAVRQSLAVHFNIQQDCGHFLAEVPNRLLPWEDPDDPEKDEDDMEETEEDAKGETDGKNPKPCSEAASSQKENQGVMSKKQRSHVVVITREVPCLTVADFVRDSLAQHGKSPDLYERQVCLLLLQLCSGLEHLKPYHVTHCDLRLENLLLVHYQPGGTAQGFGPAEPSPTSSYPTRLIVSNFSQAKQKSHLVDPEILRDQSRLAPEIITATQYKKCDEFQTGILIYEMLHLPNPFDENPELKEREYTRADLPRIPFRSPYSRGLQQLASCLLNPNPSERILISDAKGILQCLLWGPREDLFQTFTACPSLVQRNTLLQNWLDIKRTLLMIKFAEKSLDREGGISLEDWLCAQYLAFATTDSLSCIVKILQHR
Outline: as §1

MAPK8 (JNK1), sequence (P45983 whole entry): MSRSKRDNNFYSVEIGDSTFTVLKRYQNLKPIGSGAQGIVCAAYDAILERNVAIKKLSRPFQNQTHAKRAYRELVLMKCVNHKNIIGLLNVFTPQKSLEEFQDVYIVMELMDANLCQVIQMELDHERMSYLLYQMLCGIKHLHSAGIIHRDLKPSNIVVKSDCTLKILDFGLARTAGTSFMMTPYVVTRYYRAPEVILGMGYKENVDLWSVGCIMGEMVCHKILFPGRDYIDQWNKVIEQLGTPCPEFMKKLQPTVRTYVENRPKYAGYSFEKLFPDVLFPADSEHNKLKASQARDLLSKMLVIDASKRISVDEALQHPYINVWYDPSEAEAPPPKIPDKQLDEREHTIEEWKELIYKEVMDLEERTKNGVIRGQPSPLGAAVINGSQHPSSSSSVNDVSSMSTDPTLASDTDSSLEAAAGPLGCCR

SMILES	inhibition at 1 µM [1] [%]	inhibition at 1 µM [2] [%]	inhibition at 1 µM [3] [%]	inhibition at 1 µM [4] [%]	inhibition at 1 µM [5] [%]
COc1cc2nccc(Oc3ccc(NC(=O)C4(C(=O)Nc5ccc(F)cc5)CC4)cc3)c2cc1OC [Cabozantinib, reference compound]	-2	74	1	100	85
COc1cc2nccc(Oc3ccc(NC(=O)C4(NC(=O)c5ccc(F)cc5)CC4)cc3F)c2cc1OC [Cbo-02, N-(1-((4-((6,7-diMethoxyquinolin-4-yl)oxy)-3-fluorophenyl)carbamoyl)cyclopropyl)-4-fluorobenzamide]	5	17	1	32	38
COc1cc2nccc(Oc3ccc(NC(=O)C4(NC(=O)c5ccc(F)cc5)CC4)cc3F)c2cc1Oc1ccc(N)cc1F [Cbo-10]	32	39	-1	51	55
COc1cc2nccc(Oc3ccc(NC(=O)C4(NC(=O)c5ccc(F)cc5)CC4)cc3F)c2cc1Oc1c(F)cc(N)cc1F [Cbo-14]	41	64	1	60	64
COc1cc2nccc(Oc3ccc(NC(=O)C4(C(=O)Nc5ccc(F)cc5)CC4)cc3F)c2cc1Oc1ccc(N)cc1F [Cbo-23]	-2	92	-9	91	–
